Data on twelve molecules can be found in patent EP3394284B1, “ENZYMATIC METHOD FOR THE EVALUATION OF XYLOSE” (Venter Pharma, S.L, priority 2015, dated 2017).

In data set [1] the target is T1, XylB-wt2 (Caulobacter vibrioides, UniProt B8H1Z0).
T1 construct: made in house; host or cells: E. coli BL21(DE3)
T1 sequence (B8H1Z0 1-248): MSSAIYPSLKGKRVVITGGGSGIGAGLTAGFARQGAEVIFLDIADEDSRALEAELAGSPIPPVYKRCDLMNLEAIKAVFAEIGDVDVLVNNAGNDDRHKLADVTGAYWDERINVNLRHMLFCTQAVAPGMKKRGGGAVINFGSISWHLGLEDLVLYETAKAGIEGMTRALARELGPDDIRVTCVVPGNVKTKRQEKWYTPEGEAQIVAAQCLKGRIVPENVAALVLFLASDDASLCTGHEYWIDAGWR
Description: Steady-state kinetic assays of purified XylB-wt2 for substrates and cofactor. In kind it is biochemical, C. crescentus NA1000. As to conditions: for activity as cofactor of XylB-wt2: NAD^+ and NADP^+ both assayed, 'the first one' = NAD^+ (NADP^+ gave no activity).
Description: (§1) Steady-state kinetic assays for XylB activity were measured in triplicate at 25°C in 96-well plates (total volume of 0.3 mL). Measurements of kinetic parameters for D-xylose were performed with purified XylB-wt2 at eight different D-xylose concentrations and with saturating concentration of NAD^+ (0.5 mM). […] Xylose dehydrogenase activity of purified XylB-wt2 was measured at RT and pH 8.0.
(§2) Kinetic parameters of XylB-wt2 for the cofactor NAD^+ were also calculated.
(§3) The calculated homohexameric quaternary structure should be considered when kinetic parameters are calculated.

For data set [2], the target named is T1, XylB-wt2. Description: Substrate specificity: XylB-wt2 activity with mono- and disaccharides (NADH formation at 340 nm). In kind it is biochemical, C. crescentus NA1000.
Description: Xylose dehydrogenase activity in each CFE was evaluated. XylB catalyzes the oxidation of D-xylose with concomitant reduction of its cofactor NAD^+, to yield NADH. Activity can be determined by measuring the formation of NADH by spectrophotometric monitoring. Variations of absorbance at 340 nm are proportional to consumed D-xylose concentration in the reaction (ε^NADH = 6220 cm^-1M^-1). Activity assays were performed at RT and pH 8.0 (Figure 5). Absorbance at 340 nm (OD) was spectrophotometrically recorded along the time in the presence of each CFE sample containing expressed XylB: wt1, wt2, 6His1 and 6His2. […] Volumes of CFE samples used in the assays are shown in brackets, as well as when the sample has been diluted 10 times (dil 1/10). Slopes are proportional to enzyme activity.
The enzyme XylB-wt2 was characterized to determine if it is possible its application in sensitive and reliable D-xylose detection and quantification. […] In order to confirm the substrate specificity, 9 different sugars (7 monosaccharides and 2 disaccharides) were assayed as XylB-wt substrates. […] XylB-wt2 specific activity measured with different mono and disaccharides.
The target in data set [3] is T2, 6His-tagged XylB (Caulobacter vibrioides, UniProt B8H1Z0).
T2 construct: 6His
T2 sequence (B8H1Z0 1-248): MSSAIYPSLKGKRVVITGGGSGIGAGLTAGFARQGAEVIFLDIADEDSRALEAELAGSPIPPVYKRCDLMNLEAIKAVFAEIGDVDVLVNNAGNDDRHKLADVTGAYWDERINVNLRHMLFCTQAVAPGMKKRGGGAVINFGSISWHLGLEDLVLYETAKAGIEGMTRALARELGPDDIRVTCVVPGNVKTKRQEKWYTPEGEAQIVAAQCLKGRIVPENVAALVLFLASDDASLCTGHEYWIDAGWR
Conditions: data taken from Stephens C, 2007; cited from earlier work.

Data set [4] deals with T3, Strep-TEV-XylB (Caulobacter vibrioides, UniProt B8H1Z0).
T3 construct: Strep tag; TEV cleavage site
T3 sequence (B8H1Z0 1-248): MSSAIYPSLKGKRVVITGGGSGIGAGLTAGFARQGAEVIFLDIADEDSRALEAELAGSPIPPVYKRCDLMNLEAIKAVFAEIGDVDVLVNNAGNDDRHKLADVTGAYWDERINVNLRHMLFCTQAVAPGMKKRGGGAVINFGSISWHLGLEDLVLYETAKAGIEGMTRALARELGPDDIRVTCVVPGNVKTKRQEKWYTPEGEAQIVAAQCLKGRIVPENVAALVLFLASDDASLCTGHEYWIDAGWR
Conditions: data taken from Toivari M, 2012a; pH 9.0; cited from earlier work.

Substrate in data set [5]: NC(=O)c1ccc[n+]([C@@H]2O[C@H](COP(=O)([O-])OP(=O)(O)OC[C@H]3O[C@@H](n4cnc5c(N)ncnc54)[C@H](O)[C@@H]3O)[C@@H](O)[C@H]2O)c1
Description: Steady-state kinetic assays of purified XylB-wt2 for substrates and cofactor. In kind it is biochemical, C. crescentus NA1000. Conditions: other: 25°C, pH 8.0, sugars with NAD^+ 0.5 mM, NAD^+ with D-xylose 5 mM.
Description: as §1, §2, §3

Where [6] appears, read: sugar concentration 5 mM, relative to D-xylose.
Where [7] appears, read: sugar concentration 100 mM, relative to D-xylose at 5 mM.
Setting [8] is: 25°C, pH 8.0, sugars with NAD^+ 0.5 mM, NAD^+ with D-xylose 5 mM, enzyme assumed monomer.
[9] abbreviates: considering the enzyme as a homohexameric protein.

Regarding `NC(=O)c1ccc[n+]([C@@H]2O[C@H](COP(=O)([O-])OP(=O)(O)OC[C@H]3O[C@@H](n4cnc5c(N)ncnc54)[C@H](OP(=O)(O)O)[C@@H]3O)[C@@H](O)[C@H]2O)c1` [NADP^+], the “activity as cofactor of XylB-wt2” value in data set [1] was “only displayed activity with the first one”.

Turning to L-Arabinose, the “Specific Activity (U/mg)” value in data set [2] (sugar concentration 5 mM) stood at 4.8 U/mg. In addition, the “Relative Activity (%)” value in data set [2] (setting [6]) is 16%.

Take `O=C(CO)[C@@H](O)[C@H](O)[C@H](O)CO` [D-Fructose]: the “Specific Activity (U/mg)” value in data set [2] (sugar concentration 100 mM) was 0.0 U/mg. Moreover, in data set [2] (setting [7]), the “Relative Activity (%)” value came to 0%.

Usually Km stands for the substrate concentration at which the rate is half of its maximum. A word on the kcat: it is the number of substrate molecules converted per active site and unit of time at saturation. D-Xylose: the Km was 760 µM in data set [3]; 80 ± 20 µM in data set [4]; 41 ± 5 µM in data set [1] (25°C, pH 8.0, sugars with NAD^+ 0.5 mM, NAD^+ with D-xylose 5 mM); 41 ± 5 µM in data set [1] (setting [9]). Moreover, the results for the “Vmax (U·mg^-1)” value in data set [3], in data set [1] (setting [8]) and in data set [1] (setting [9]) were 27.5 U·mg^-1, 30.2 ±1.0 U·mg^-1 and 30.2 ±1.0 U·mg^-1, respectively. Besides, the “kcat” value is 22.67 ± 1.08 s⁻¹ in data set [4] and 13.5 ± 0.583 s⁻¹ in data set [1] (setting [8]). For the same molecule, in data set [2] (sugar concentration 5 mM), the “Specific Activity (U/mg)” value worked out at 30.0 U/mg. The “Relative Activity (%)” value in data set [2] (setting [6]) came to 100%. Also, the “catalytic efficiencies (kcat/KM) ratio D-xylose/ D-glucose” value in data set [1] (XylB-wt2, pH 8.0) stood at 15000.

D-Mannose: the “Specific Activity (U/mg)” value in data set [2] (sugar concentration 100 mM) was determined as 0.0 U/mg. Moreover, the “Relative Activity (%)” value in data set [2] (setting [7]) is on record as 0%.

On to `NC(=O)c1ccc[n+]([C@@H]2O[C@H](COP(=O)([O-])OP(=O)(O)OC[C@H]3O[C@@H](n4cnc5c(N)ncnc54)[C@H](O)[C@@H]3O)[C@@H](O)[C@H]2O)c1` [NAD^+], for which the “Vmax (U·mg^-1)” value in data set [3] is on record as 20.5 U·mg^-1. In data set [4], the Km was 460 ± 50 µM and the “kcat” value was 31 ± 1.08 s⁻¹. In addition, the “activity as cofactor of XylB-wt2” value in data set [1] is on record as “only displayed activity with the first one”. Moreover, the “Vmax (U·mg^-1)” value in data set [1] (setting [9]) is on record as 30.1 ±1.0 U·mg^-1.

As for `OC[C@H]1O[C@H](O[C@H]2[C@H](O)[C@@H](O)C(O)O[C@@H]2CO)[C@H](O)[C@@H](O)[C@@H]1O` (mixture of isomers) [Maltose], the “Specific Activity (U/mg)” value in data set [2] (sugar concentration 100 mM) is recorded as 0.0 U/mg. Further, the “Relative Activity (%)” value in data set [2] (setting [7]) came to 0%.

With D-Glucose, in data set [2] (sugar concentration 100 mM), the “Specific Activity (U/mg)” value worked out at 3.9 U/mg. Further, the “Relative Activity (%)” value in data set [2] (setting [7]) is given as 13%. Besides, in data set [1] (setting [8]), the “Vmax (U·mg^-1)” value was determined as 10.7 ±0.1 U·mg^-1 and the “kcat” value was 4.78 ± 0.833 s⁻¹. In data set [1] (setting [9]), the “Vmax (U·mg^-1)” value stood at 10.7 ±0.1 U·mg^-1.

Turning to D-Galactose, in data set [2] (sugar concentration 100 mM), the “Specific Activity (U/mg)” value turned out to be 0.5 U/mg. Further, the “Relative Activity (%)” value in data set [2] (setting [7]) is given as 2%.

As to “4-O-β-galactopyranosyl-D-xylose [Gaxilose]”, the “Specific Activity (U/mg)” value in data set [2] (sugar concentration 100 mM) turned out to be 0.7 U/mg. Besides, the “Relative Activity (%)” value in data set [2] (setting [7]) amounted to 2%.

For the molecule D-Ribose, the “Specific Activity (U/mg)” value in data set [2] (sugar concentration 100 mM) is listed as 4.4 U/mg. Moreover, the “Relative Activity (%)” value in data set [2] (setting [7]) amounted to 15%.

B1: XylB-wt2 (Caulobacter vibrioides NA1000) (protein)
chain: MSSAIYPSLKGKRVVITGGGSGIGAGLTAGFARQGAEVIFLDIADEDSRALEAELAGSPIPPVYKRCDLMNLEAIKAVFAEIGDVDVLVNNAGNDDRHKLADVTGAYWDERINVNLRHMLFCTQAVAPGMKKRGGGAVINFGSISWHLGLEDLVLYETAKAGIEGMTRALARELGPDDIRVTCVVPGNVKTKRQEKWYTPEGEAQIVAAQCLKGRIVPENVAALVLFLASDDASLCTGHEYWIDAGWR
notes: made in house; host or cells: E. coli BL21(DE3)
As usually defined, the kcat/Km is the turnover number divided by the Michaelis constant. Take B1: in data set [5], the Km turned out to be 78 ± 10 µM, the Vmax is on record as 30.1 ±1.0 U·mg^-1, the kcat came out at 13.5 ± 1.08 s⁻¹ and the kcat/Km was 173080 M⁻¹ s⁻¹.
